Values joined by “and” are separate entries in the source; they are usually repeats but may differ in a detail not shown here. Identical values can stand only once. “Also recorded” adds a separate entry of the source. Like-named read-outs stand apart in the source and are kept apart here.
Experiments:
α-syn fibrils [1] = molecular target: T1, α-syn fibrils (Homo sapiens, UniProt P37840)
tau fibrils [2] = molecular target: T2, tau fibrils (Homo sapiens, UniProt P10636)
Aβ1-42 fibrils [3] = molecular target: T3, Aβ1-42 fibrils (Homo sapiens, UniProt P05067)
T3 sequence (P05067 672-713 limits assumed): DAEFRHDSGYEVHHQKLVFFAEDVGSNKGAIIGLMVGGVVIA

tau fibrils [4] = molecular target: T2, tau fibrils; assay: biochemical
Aβ1-42 fibrils [5] = molecular target: T3, Aβ1-42 fibrils; assay: biochemical
α-syn fibrils [6] = molecular target: T1, α-syn fibrils; assay: biochemical
[7] = Stability of isomers in solution measured by HPLC; format: physicochemical; conditions: for time for isolated pure Z,E and E,E isomers to isomerize to a mixture: after HPLC separation of the isomers
Aβ plaques = Aβ plaques (Homo sapiens, UniProt P05067); assay: Fluorescent staining of postmortem AD temporal lobe tissue; conditions: 5 μM compound, AD temporal lobe sections, fluorescence microscopy
Aβ plaques, sequence (P05067 672-711 limits assumed): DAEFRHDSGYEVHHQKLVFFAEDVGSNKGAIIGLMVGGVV

Lewy bodies = Lewy bodies (Homo sapiens, UniProt P37840); assay: Fluorescent staining of postmortem PD/DLB midbrain tissue; conditions: 5 μM compound, PD/DLB midbrain sections, fluorescence microscopy

T2 sequence (P10636 560-692): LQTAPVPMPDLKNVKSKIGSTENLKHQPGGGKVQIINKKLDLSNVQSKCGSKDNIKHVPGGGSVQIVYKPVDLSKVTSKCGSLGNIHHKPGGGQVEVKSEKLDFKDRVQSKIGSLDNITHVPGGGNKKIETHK

Molecule	Ki (tau fibrils [4])	Ki (Aβ1-42 fibrils [5])	Ki (α-syn fibrils [6])	further results
3-(3-(4-(Dimethylamino)phenyl)allylidene)-1-(pyridin-4-ylmethyl)indolin-2-one [Compound 29]				Ki (α-syn fibrils [1]): 92 ± 11.2 nM; Ki (tau fibrils [2]): 188 ± 68 nM; Ki (Aβ1-42 fibrils [3]): 45.9 ± 19.4 nM
3-(4-(Dimethylamino)benzylidene)-1-(pyridin-4-ylmethyl)indolin-2-one [Compound 11]				Ki (α-syn fibrils [1]): 150 ± 45.7 nM; Ki (tau fibrils [2]): 364 ± 121 nM; Ki (Aβ1-42 fibrils [3]): 87.1 ± 34.1 nM
O=C1Nc2ccccc2C1=C/C=C/c1ccccc1 [Compound 18, 3-(3-Phenylallylidene)indolin-2-one]	522 nM	267 nM	206 nM and 207 nM	
COc1ccc(/C=C/C=C2C(=O)Nc3ccccc32)cc1 [Compound 19, 3-(3-(4-Methoxyphenyl)allylidene)indolin-2-one]	169 ± 22.3 nM	125 nM and 126 nM	62 nM and 61.1 nM	
CN(C)c1ccc(/C=C/C=C2C(=O)Nc3ccccc32)cc1 [Compound 20, 3-(3-(4-(Dimethylamino)phenyl)allylidene)indolin-2-one]	54 nM and 53.7 nM	27 nM and 27.6 nM	41 nM and 40.7 nM	time for isolated pure Z,E and E,E isomers to isomerize to a mixture [7]: ≤ 20 min; labeling of Aβ plaques (Aβ plaques): label both Lewy bodies and Aβ plaques; also recorded: high labeling of both Lewy Bodies and Aβ plaques; labeling of Lewy bodies (Lewy bodies): label both Lewy bodies and Aβ plaques; also recorded: high labeling of both Lewy Bodies and Aβ plaques
CN(C)c1ccc(/C=C/C=C2C(=O)Nc3ncccc32)cc1 [Compound 21, 3-(3-(4-(Dimethylamino)phenyl)allylidene)-1H-pyrrolo[2,3-b]pyridin-2(3H)-one]	35.1 ± 12.3 nM	15.3 ± 5.5 nM	11.5 ± 2 nM	
CN(C)c1ccc(/C=C/C=C2C(=O)Nc3ccc(O)cc32)cc1 [Compound 22, 3-(3-(4-(Dimethylamino)phenyl)allylidene)-5-hydroxyindolin-2-one]	48 ± 17 nM	37.1 ± 13.6 nM	54 ± 17.9 nM	
COc1ccc(/C=C/C=C2C(=O)N(Cc3ccccc3)c3ccccc32)cc1 [Compound 24, 1-Benzyl-3-(3-(4-methoxyphenyl)allylidene)indolin-2-one]	718 ± 295 nM	741 ± 255 nM	72.5 ± 22.6 nM	
CN(C)c1ccc(/C=C/C=C2C(=O)N(C)c3ccccc32)cc1 [Compound 25, 3-(3-(4-(Dimethylamino)phenyl)allylidene)-1-methylindolin-2-one]	229 ± 121 nM	56 ± 14.8 nM	63.7 ± 29.6 nM	
CN(C)c1ccc(/C=C/C=C2C(=O)N(Cc3ccccc3)c3ccccc32)cc1 [Compound 26, 1-Benzyl-3-(3-(4-(dimethylamino)phenyl)allylidene)indolin-2-one]	374 ± 209 nM	358 ± 162 nM	40.9 ± 25.2 nM	
COc1ccc(CN2C(=O)C(=C/C=C/c3ccc(N(C)C)cc3)c3ccccc32)cc1 [Compound 27, 3-(3-(4-(Dimethylamino)phenyl)allylidene)-1-(4-methoxybenzyl)indolin-2-one]	240 ± 158 nM	130 ± 41.4 nM	54.6 ± 11.4 nM	time for isolated pure Z,E and E,E isomers to isomerize to a mixture [7]: ≤ 20 min
CN(C)c1ccc(/C=C/C=C2C(=O)N(Cc3ccc([N+](=O)[O-])cc3)c3ccccc32)cc1 [Compound 28, 3-(3-(4-(Dimethylamino)phenyl)allylidene)-1-(4-nitrobenzyl)indolin-2-one]	90 ± 48.8 nM	92.4 ± 21.9 nM	4 nM and 4.2 nM	
CCOC(=O)N1C(=O)C(=C/C=C/c2ccc(N(C)C)cc2)c2ccccc21 [Compound 30, Ethyl 3-(3-(4-(dimethylamino)phenyl)allylidene)-2-oxoindoline-1-carboxylate]	263 ± 110 nM	84 ± 35 nM	45.3 ± 9 nM	
CN(C)c1ccc(/C=C/C=C2C(=O)N(Cc3ccccc3)c3ncccc32)cc1 [Compound 31, 1-Benzyl-3-(3-(4-(dimethylamino)phenyl)allylidene)-1H-pyrrolo[2,3-b]pyridin-2(3H)-one]	257 ± 117 nM	85.1 ± 23 nM	68.3 ± 31.2 nM	
COc1ccc(CN2C(=O)C(=C/C=C/c3ccc(N(C)C)cc3)c3cccnc32)cc1 [Compound 32, 3-(3-(4-(Dimethylamino)phenyl)allylidene)-1-(4-methoxybenzyl)-1H-pyrrolo[2,3-b]pyridin-2(3H)-one]	204 ± 26.7 nM	107 ± 18.9 nM	29.8 ± 6.6 nM	
CN(C)c1ccc(/C=C/C=C2C(=O)N(Cc3ccc(N)cc3)c3ccccc32)cc1 [Compound 33, 1-(4-Aminobenzyl)-3-(3-(4-(dimethylamino)phenyl)allylidene)indolin-2-one]	131 ± 51.5 nM	98.9 ± 12.1 nM	43.6 ± 20 nM	
CN(C)c1ccc(/C=C/C=C2C(=O)N(c3ccccc3)c3ccccc32)cc1 [Compound 36, 3-(3-(4-(Dimethylamino)phenyl)allylidene)-1-phenylindolin-2-one]	465 ± 94.6 nM	287 ± 142 nM	68.1 ± 33 nM	
O=C1Nc2ccccc2/C1=C/C=C/c1ccc([N+](=O)[O-])cc1 [Compound 41a, (Z)-3-((E)-3-(4-Nitrophenyl)allylidene)indolin-2-one]				time stable in solution ([7]; CH2Cl2-MeOH (1:1), HPLC peak and retention time): ≥ 20 h
O=C1Nc2ccccc2/C1=C\C=C\c1ccc([N+](=O)[O-])cc1 [Compound 41b, (E)-3-((E)-3-(4-Nitrophenyl)allylidene)indolin-2-one]				isomerization to an un-identified isomer ([7]; CH2Cl2-MeOH (1:1), 20 h, HPLC): 33%
Nc1ccc(/C=C/C=C2C(=O)Nc3ccccc32)cc1 [Compound 47, 3-(3-(4-Aminophenyl)allylidene)indolin-2-one]	38.3 ± 28.7 nM	50.8 ± 18.5 nM	44.8 ± 15.6 nM	
